Laboratory results from US20240190865A1, “T-TYPE CALCIUM CHANNEL ANTAGONISTS AND USES THEREOF” (THE BOARD OF TRUSTEES OF THE LELAND STANFORD JUNIOR …, priority 2021, published 2024).

Target: Cav3.2 (Homo sapiens (Human), UniProt O95180)
Assay: In vitro patch clamp assay (SyncroPatch 384PE)
Format: cell-based
Conditions: HEK293 cells
Protocol: Patch clamp assays were performed at Charles River. HEK293 cells were cultured in Dulbecco's Modified Eagle Medium/Nutrient Mixture F-12 (D-MEM/F-12) supplemented with 10% fetal bovine serum, 100 U/mL penicillin G sodium, 100 μg/mL streptomycin sulfate and 500 μg/mL G418. Before testing, cells in culture dishes were washed twice with Hank's Balanced Salt Solution, treated with Accutase™ and re-suspended in the culture media (˜20×10^6 cells in 20 mL). Cells in suspension were allowed to recover for 10 minutes in tissue culture incubator set at 37° C. in a humidified 95% air: 5% CO2 atmosphere. Immediately before use in the SyncroPatch 384PE system (SP384PE), the cells were washed twice in extracellular buffer (HB-PS) to remove the culture medium and re-suspended in 20 mL of HB-PS. Extracellular buffer was loaded into the wells of Nanion 384-well Patch Clamp (NPC-384, 4×M) chip (60 μL per well). Then, cell suspension was pipetted into the wells (20 μL per well) of the chip. After establishment of the whole-cell configuration, membrane currents were recorded using patch clamp amplifier in the SP384PE system.

Sequence of Cav3.2 (O95180 whole entry): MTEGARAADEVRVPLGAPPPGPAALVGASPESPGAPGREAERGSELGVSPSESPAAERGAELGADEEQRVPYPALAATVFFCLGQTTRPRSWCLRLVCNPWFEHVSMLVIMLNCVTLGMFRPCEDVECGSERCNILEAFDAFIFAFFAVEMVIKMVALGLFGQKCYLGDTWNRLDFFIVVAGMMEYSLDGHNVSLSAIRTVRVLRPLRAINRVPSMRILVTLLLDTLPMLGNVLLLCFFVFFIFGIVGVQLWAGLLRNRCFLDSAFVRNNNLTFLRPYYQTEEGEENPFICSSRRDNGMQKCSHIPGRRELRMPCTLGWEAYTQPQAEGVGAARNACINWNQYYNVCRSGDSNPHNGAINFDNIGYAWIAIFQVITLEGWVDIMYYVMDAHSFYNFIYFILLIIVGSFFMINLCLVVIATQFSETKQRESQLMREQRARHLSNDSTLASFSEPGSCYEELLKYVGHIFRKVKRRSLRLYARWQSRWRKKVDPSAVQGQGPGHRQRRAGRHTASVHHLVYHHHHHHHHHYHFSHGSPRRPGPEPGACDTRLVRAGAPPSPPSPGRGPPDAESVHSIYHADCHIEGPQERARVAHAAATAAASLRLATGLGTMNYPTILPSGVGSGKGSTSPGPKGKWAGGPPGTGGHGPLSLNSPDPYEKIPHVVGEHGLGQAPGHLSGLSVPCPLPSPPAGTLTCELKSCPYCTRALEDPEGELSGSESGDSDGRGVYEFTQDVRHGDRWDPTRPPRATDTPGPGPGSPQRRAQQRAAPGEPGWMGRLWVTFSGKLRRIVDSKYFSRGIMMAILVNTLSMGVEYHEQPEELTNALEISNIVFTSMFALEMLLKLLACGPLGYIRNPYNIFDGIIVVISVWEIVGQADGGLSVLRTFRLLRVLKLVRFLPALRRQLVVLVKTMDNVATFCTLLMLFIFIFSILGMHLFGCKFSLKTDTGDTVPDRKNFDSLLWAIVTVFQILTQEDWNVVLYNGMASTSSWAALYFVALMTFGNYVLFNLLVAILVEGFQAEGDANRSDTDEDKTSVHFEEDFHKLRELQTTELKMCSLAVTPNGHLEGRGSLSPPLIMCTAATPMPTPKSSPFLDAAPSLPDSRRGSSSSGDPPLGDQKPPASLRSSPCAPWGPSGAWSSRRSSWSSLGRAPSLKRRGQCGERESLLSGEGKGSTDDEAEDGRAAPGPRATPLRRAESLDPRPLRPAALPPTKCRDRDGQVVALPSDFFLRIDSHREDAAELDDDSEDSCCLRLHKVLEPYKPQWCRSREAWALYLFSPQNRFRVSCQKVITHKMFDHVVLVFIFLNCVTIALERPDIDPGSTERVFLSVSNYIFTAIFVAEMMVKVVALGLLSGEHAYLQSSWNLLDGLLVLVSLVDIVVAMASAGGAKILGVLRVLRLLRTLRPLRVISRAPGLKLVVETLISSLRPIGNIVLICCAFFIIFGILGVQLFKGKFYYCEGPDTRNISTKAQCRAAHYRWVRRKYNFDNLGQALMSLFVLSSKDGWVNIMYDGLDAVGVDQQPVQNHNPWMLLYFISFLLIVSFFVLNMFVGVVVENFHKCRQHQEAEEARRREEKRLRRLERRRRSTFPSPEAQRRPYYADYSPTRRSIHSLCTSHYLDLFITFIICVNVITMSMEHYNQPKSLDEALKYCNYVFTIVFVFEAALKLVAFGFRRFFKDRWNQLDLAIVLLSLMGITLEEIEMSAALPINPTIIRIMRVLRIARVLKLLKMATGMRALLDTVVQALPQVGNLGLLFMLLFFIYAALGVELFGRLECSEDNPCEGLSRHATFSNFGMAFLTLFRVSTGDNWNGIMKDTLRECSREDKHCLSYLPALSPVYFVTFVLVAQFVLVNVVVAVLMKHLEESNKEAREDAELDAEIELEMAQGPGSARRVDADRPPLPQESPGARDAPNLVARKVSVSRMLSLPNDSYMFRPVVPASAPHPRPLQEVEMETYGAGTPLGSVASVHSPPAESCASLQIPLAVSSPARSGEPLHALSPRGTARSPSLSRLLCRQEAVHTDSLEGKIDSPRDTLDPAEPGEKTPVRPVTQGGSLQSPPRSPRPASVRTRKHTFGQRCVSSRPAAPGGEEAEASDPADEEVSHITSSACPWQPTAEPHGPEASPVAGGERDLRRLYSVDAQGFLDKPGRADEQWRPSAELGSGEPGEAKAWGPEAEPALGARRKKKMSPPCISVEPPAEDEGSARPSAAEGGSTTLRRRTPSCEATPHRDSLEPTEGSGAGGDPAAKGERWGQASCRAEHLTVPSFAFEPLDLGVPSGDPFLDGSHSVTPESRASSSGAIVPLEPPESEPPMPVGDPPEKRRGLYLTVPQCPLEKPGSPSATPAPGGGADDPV

| Structure (SMILES) | IC50 [nM] |
| --- | --- |
| C[C@@H](NC(=O)Cc1ccc(C2CC2(F)F)cc1)c1cc2cnn(CC(F)(F)F)c2cn1 (single isomer, unassigned) [Example 30] | 475 |
| C[C@@H](NC(=O)Cc1ccc(C2CC2(F)F)cc1)c1cc2cnn(CC(F)(F)F)c2cn1 (single isomer, unassigned) [Example 31] | 505 |
| CC(C)c1ccc(CC(=O)N[C@H](C)c2cc3cnn(C)c3cn2)cc1 [Example 1, (R)-2-(4-isopropylphenyl)-N-(1-(1-methyl-1H-pyrazolo[3,4-c]pyridin-5-yl)ethyl)acetamide] | 522 |
| CC(C)c1ccc(CC(=O)N[C@H](C)c2cc3cn(C)nc3cn2)cc1 [Example 2, (R)-2-(4-isopropylphenyl)-N-(1-(2-methyl-2H-pyrazolo[3,4-c]pyridin-5-yl)ethyl)acetamide] | 6450 |
| CC(C)c1ccc(CC(=O)N[C@H](C)c2cc3c(cn2)cnn3C)cc1 [Example 3, (R)-2-(4-isopropylphenyl)-N-(1-(1-methyl-1H-pyrazolo[4,3-c]pyridin-6-yl)ethyl)acetamide] | > 10000 |
| CC(C)c1ccc(CC(=O)N[C@H](C)c2cc3nn(C)cc3cn2)cc1 [Example 4, (R)-2-(4-isopropylphenyl)-N-(1-(2-methyl-2H-pyrazolo[4,3-c]pyridin-6-yl)ethyl)acetamide] | > 10000 |
| Cc1noc2cc([C@@H](C)NC(=O)Cc3ccc(C(C)C)cc3)ncc12 [Example 5, (R)-2-(4-isopropylphenyl)-N-(1-(3-methylisoxazolo[4,5-c]pyridin-6-yl)ethyl)acetamide] | 1220 |
| Cc1noc2cnc([C@@H](C)NC(=O)Cc3ccc(C(C)C)cc3)cc12 [Example 6, (R)-2-(4-isopropylphenyl)-N-(1-(3-methylisoxazolo[5,4-c]pyridin-5-yl)ethyl)acetamide] | 7840 |
| CCCn1ncc2cc([C@@H](C)NC(=O)Cc3ccc(C(C)C)cc3)ncc21 [Example 7, (R)-2-(4-isopropylphenyl)-N-(1-(1-propyl-1H-pyrazolo[3,4-c]pyridin-5-yl)ethyl)acetamide] | 110 |
| CCn1ncc2cc([C@@H](C)NC(=O)Cc3ccc(C(C)C)cc3)ncc21 [Example 8, (R)—N-(1-(1-ethyl-1H-pyrazolo[3,4-c]pyridin-5-yl)ethyl)-2-(4-isopropylphenyl)acetamide] | 126 |
| CC(C)c1ccc(CC(=O)N[C@H](C)c2cc3cnn(CC(F)(F)F)c3cn2)cc1 [Example 9, (R)-2-(4-isopropylphenyl)-N-(1-(1-(2,2,2-trifluoroethyl)-1H-pyrazolo[3,4-c]pyridin-5-yl)ethyl)acetamide] | 44 |
| C[C@@H](NC(=O)Cc1ccc(C2(C(F)(F)F)CC2)cc1)c1cnc2c(cnn2C)c1 [Example 10, (R)—N-(1-(1-methyl-1H-pyrazolo[3,4-b]pyridin-5-yl)ethyl)-2-(4-(1-(trifluoromethyl)cyclopropyl)phenyl)acetamide] | > 10000 |
| CCCn1cc2cc([C@@H](C)NC(=O)Cc3ccc(C(C)C)cc3)ncc2n1 [Example 11, (R)-2-(4-isopropylphenyl)-N-(1-(2-propyl-2H-pyrazolo[3,4-c]pyridin-5-yl)ethyl)acetamide] | 2420 |
| C[C@@H](NC(=O)Cc1ccc(C2(C(F)(F)F)CC2)cc1)c1cc2cnn(C)c2cn1 [Example 12, (R)—N-(1-(1-methyl-1H-pyrazolo[3,4-c]pyridin-5-yl)ethyl)-2-(4-(1-(trifluoromethyl)cyclopropyl)phenyl)acetamide] | 647 |
| CC(C)c1ccc(CC(=O)N[C@H](C)c2cc3cnn(C)c3nn2)cc1 [Example 13, (R)-2-(4-isopropylphenyl)-N-(1-(1-methyl-1H-pyrazolo[3,4-c]pyridazin-5-yl)ethyl)acetamide] | 710 |
| CC(C)c1ccc(CC(=O)N[C@H](C)c2cc3cnn(CC(C)(F)F)c3cn2)cc1 [Example 14, (R)—N-(1-(1-(2,2-difluoropropyl)-1H-pyrazolo[3,4-c]pyridin-5-yl)ethyl)-2-(4-isopropylphenyl)acetamide] | 85 |
| C[C@@H](NC(=O)Cc1ccc(C(C)(F)F)nc1)c1cc2cnn(CC(F)(F)F)c2cn1 [Example 16, (R)-2-(6-(1,1-difluoroethyl)pyridin-3-yl)-N-(1-(1-(2,2,2-trifluoroethyl)-1H-pyrazolo[3,4-c]pyridin-5-yl)ethyl)acetamide] | 1270 |

| Structure (SMILES) | IC50 [nM] |
| --- | --- |
| C[C@@H](NC(=O)Cc1ccc(C2(C(F)(F)F)CC2)s1)c1cc2cnn(CC(F)(F)F)c2cn1 [Example 17, (R)—N-(1-(1-(2,2,2-trifluoroethyl)-1H-pyrazolo[3,4-c]pyridin-5-yl)ethyl)-2-(5-(1-(trifluoromethyl)cyclopropyl)thiophen-2-yl)acetamide] | 292 |
| CC(C)c1ccc(CC(=O)N[C@H](C)c2cc3cnn(CC4(F)CC4)c3cn2)cc1 [Example 18, (R)—N-(1-(1-((1-fluorocyclopropyl)methyl)-1H-pyrazolo[3,4-c]pyridin-5-yl)ethyl)-2-(4-isopropylphenyl)acetamide] | 343 |
| C[C@@H](NC(=O)Cc1ccc(C(C)(F)F)cc1)c1cc2cnn(CC(F)(F)F)c2cn1 [Example 19, (R)-2-(4-(1,1-difluoroethyl)phenyl)-N-(1-(1-(2,2,2-trifluoroethyl)-1H-Pyrazolo[3,4-c]pyridin-5-yl)ethyl)acetamide] | 132 |
| CC(C)c1ccc(CC(=O)N[C@H](C)c2cc3cnn(CC(F)(F)F)c3cn2)cn1 [Example 20, (R)-2-(6-isopropylpyridin-3-yl)-N-(1-(1-(2,2,2-trifluoroethyl)-1H-pyrazolo[3,4-c]pyridin-5-yl)ethyl)acetamide] | 1050 |
| C[C@@H](NC(=O)Cc1ccc(C2(C(F)F)CC2)nc1)c1cc2cnn(CC(F)(F)F)c2cn1 [Example 21, (R)-2-(6-(1-(difluoromethyl)cyclopropyl)pyridin-3-yl)-N-(1-(1-(2,2,2-trifluoroethyl)-1H-pyrazolo[3,4-c]pyridin-5-yl)ethyl)acetamide] | 637 |
| C[C@@H](NC(=O)Cc1ccc(C2(C(F)F)CC2)cc1)c1cc2cnn(CC(F)(F)F)c2cn1 [Example 22, (R)-2-(4-(1-(difluoromethyl)cyclopropyl)phenyl)-N-(1-(1-(2,2,2-trifluoroethyl)-1H-pyrazolo[3,4-c]pyridin-5-yl)ethyl)acetamide] | 194 |
| C[C@@H](NC(=O)Cc1ccc(C2CC2)nc1)c1cc2cnn(-c3ccc(F)cc3)c2cn1 [Example 23, (R)-2-(6-cyclopropylnyridin-3-yl)-N-(1-(1-(4-fluorophenyl)-1H-pyrazolo[3,4-c]pyridin-5-yl)ethyl)acetamide] | 4020 |
| C[C@@H](NC(=O)Cc1ccc(C2CC2)cc1)c1cc2nnn(CC(F)(F)F)c2cn1 [Example 24, (R)-2-(4-cyclopropylphenyl)-N-(1-(3-(2,2,2-trifluoroethyl)-3H-[1,2,3]triazolo[4,5-c]pyridin-6-yl)ethyl)acetamide] | 333 |
| C[C@@H](NC(=O)Cc1ccc(C2CC2)nc1)c1cc2cnn(CC(F)(F)F)c2cn1 [Example 25, (R)-2-(6-cyclopropylpyridin-3-yl)-N-(1-(1-(2,2,2-trifluoroethyl)-1H-pyrazolo[3,4-c]pyridin-5-yl)ethyl)acetamide] | 2590 |
| C[C@@H](NC(=O)Cc1ccc(C2(C(F)(F)F)CC2)nc1)c1cc2cnn(CC(F)(F)F)c2cn1 [Example 26, (R)—N-(1-(1-(2,2,2-trifluoroethyl)-1H-pyrazolo[3,4-c]pyridin-5-yl)ethyl)-2-(6-(1-(trifluoromethyl)cyclopropyl)pyridin-3-yl)acetamide] | 7030 |
| C[C@@H](NC(=O)Cc1ccc(C2CC2)cc1)c1cc2cnn(-c3ccc(F)cc3)c2cn1 [Example 27, (R)-2-(4-cyclopropylphenyl)-N-(1-(1-(4-fluorophenyl)-1H-Pyrazolo[3,4-c]pyridin-5-yl)ethyl)acetamide] | 861 |
| C[C@@H](NC(=O)Cc1ccc(C2CC2)cc1)c1cc2cnn(CC(F)(F)F)c2cn1 [Example 28, (R)-2-(4-cyclopropylphenyl)-N-(1-(1-(2,2,2-trifluoroethyl)-1H-pyrazolo[3,4-c]pyridin-5-yl)ethyl)acetamide] | 89 |
| C[C@@H](NC(=O)Cc1ccc(C2(F)CC2)cc1)c1cc2cnn(CC(F)(F)F)c2cn1 [Example 29, (R)-2-(4-(1-fluorocyclopropyl)phenyl)-N-(1-(1-(2,2,2-trifluoroethyl)-1H-pyrazolo[3,4-c]pyridin-5-yl)ethyl)acetamide] | 533 |
| Cc1nn(CC(F)(F)F)c2cnc([C@@H](C)NC(=O)Cc3ccc(C(C)C)cc3)cc12 [Example 32, (R)-2-(4-isopropylphenyl)-N-(1-(3-methyl-1-(2,2,2-trifluoroethyl)-1H-pyrazolo[3,4-c]pyridin-5-yl)ethyl)acetamide] | 9420 |
| Cc1nn(CC(F)(F)F)c2cnc([C@@H](C)NC(=O)Cc3ccc(C4CC4)cc3)cc12 [Example 33, (R)-2-(4-cyclopropylphenyl)-N-(1-(3-methyl-1-(2,2,2-trifluoroethyl)-1H-pyrazolo[3,4-c]pyridin-5-yl)ethyl)acetamide] | 8270 |
| C[C@@H](NC(=O)Cc1ccc(C2CC2)cn1)c1cc2cnn(CC(F)(F)F)c2cn1 [Example 34, (R)-2-(5-cyclopropylpyridin-2-yl)-N-(1-(1-(2,2,2-trifluoroethyl)-1H-pyrazolo[3,4-c]pyridin-5-yl)ethyl)acetamide] | > 10000 |
| C[C@@H](NC(=O)Cc1cnc(C(C)(F)F)c(Cl)c1)c1cc2cnn(CC(F)(F)F)c2cn1 [Example 35, (R)-2-(5-chloro-6-(1,1-difluoroethyl)pyridin-3-yl)-N-(1-(1-(2,2,2-trifluoroethyl)-1H-pyrazolo[3,4-c]pyridin-5-yl)ethyl)acetamide] | 2130 |
